The record followed here is patent US4386073A, “Tripeptides acting on the central nervous system and a process for the preparation thereof” (Patentbureau DANUBIA, priority 1979, dated 1983).

One assay has as its system ethanol-induced sleeping. The assay is described as follows: Ethanol narcosis. The assay is classed as in vivo, CFLP (LATI) mice. Particulars: mice, ethanol 4.5 g i.p., compound 20 mg/kg i.p. 10 min later; control sleeping 46.9 ± 2.17 min. The procedure: (5) Ethanol narcosis (see J. M. Cott et al.: J. Pharm. Exp. Ther. 196, 594/1976/) The tests were performed on groups of 20 CFLP (LATI) mice of both sexes, each weighing 18 to 22 g. 4.5 g of ethanol were introduced intraperitoneally into the animals, and 10 minutes later the animals were treated intraperitoneally with 20 mg/kg of the tripeptide under examination. The sleeping periods of the animals were recorded, averages were calculated for the individual groups, and the results were expressed as percents related to the control group.

Assay [1] relates to Haloperidol-induced catalepsy. The assay can be described thus: Inhibition of Haloperidol-induced catalepsy on rats. The assay is classed as in vivo, rat (male Wistar). Particulars: Haloperidol 40 mg/kg s.c., test compound i.v. 120 min later, probit analysis, at the time given. As for the experimental part: (1) Inhibition of Haloperidol-induced catalepsy on rats (see J. Delay and P. Deniker: Compt. Rend. Congr. Med. Alenistes Neurologistes, 19, 497, Luxembourg, 1952)
The tests were performed on male Wistar rats weighing 160 to 180 g.
40 mg/kg of 4-(p-chlorophenyl)-1-(3-/p-fluorobenzoyl/-propyl)-piperidin-4-ol (Haloperi dol) were administered subcutaneously into the animals, and 120 minutes after this treatment the animals were checked for the appearance of catalepsy. The rats were divided into groups of 10 animals each, and treated intravenously with TRH or the new TRH analogues. The animals belonging to the control group received physiological saline. The catalepsy-suspending effects of the individual compounds were determined 15, 30, 60, 90 and 120 minutes after the treatment. The animals that had not changed their position for 30 seconds after placing their fore-paw onto a 7 cm high column were regarded as cataleptic.

Another assay has as its system Reserpine hypothermy. The assay is described as follows: Reserpine hypothermy-reversing effect on mice. The note with it: average of 10 animals; for Reserpine hypothermy reversing effect, rectal temperature obs. time 1 h: 1 hour after 20 mg/kg of the tripeptide; for Reserpine hypothermy reversing effect, rectal temperature obs. time 2 h: 2 hours after 20 mg/kg of the tripeptide; for Reserpine hypothermy reversing effect, rectal temperature res.: 16 hours after reserpine 5 mg/kg i.p., before the tripeptide; for Reserpine hypothermy reversing effect, rectal temperature norm.: baseline prior to administration of reserpine. The assay is classed as in vivo. As for the experimental part: (3) Reserpine hypothermy-reversing effect on mice (see B. M. Askew: Life Sci. 2, 725-730/1963/)
The tests were performed on groups of 10 male mice each, weighing 18 to 22 g. Reserpine was administered into the animals in an intraperitoneal dosage of 5 mg/kg, and 16 hours later the animals were treated with 20 mg/kg of TRH or a tripeptide under examination.
The rectal temperature of the animals was measured prior to the administration of reserpine (marked by "norm." in Table 1), 16 hours after the administration of reserpine (marked by "res." in Table 1), furthermore 1 and 2 hours after the administration of the tripeptide (marked by "obs.time" in Table 1). The data listed in Table 1 are the averages of the temperatures observed on the 10 animals.

Assay [2] relates to hexobarbital-induced sleeping. The assay is described as follows: Influencing the duration of sleeping caused by hexobarbital. The assay is classed as in vivo. Particulars: mice, hexobarbital sodium 60 mg/kg i.v., compound 20 mg/kg i.p. 10 min later; control sleeping 38.4 ± 1.36 min. The procedure: (4) Influencing the duration of sleeping caused by hexobarbital The tests were performed on groups of 10 male mice each. The animals were treated intravenously with 60 mg/kg of hexobarbital sodium ([…]®; Bayer), and 10 minutes later 20 mg/kg of TRH or a tripeptide under examination were administered intraperitoneally into the animals. The sleeping times of the animals were recorded, averages were calculated for the individual groups, and the results were expressed as percents related to the control group.

The test system of a further assay is TSH. The assay is described as follows: Hormonal activity (TSH effect) on rats. The class given is in vivo, rat (male Wistar). The note with it: 20 mg/kg i.v., plasma TSH by radioimmune assay 15 min after treatment, relative activity, TRH = 100%. As for the experimental part: (6) Hormonal activity (TSH effect) on rats
The tests were performed on groups of 7 or 8 male Wistar rats each, weighing 200 g. The animals were treated intravenously with 20 mg/kg of TRH or a tripeptide under examination. The TSH reaction of the animals was evaluated 15 minutes after this treatment, by subjecting the blood plasma to radioimmune assay. The relative activities were calculated by the four-point method using a TPA 101 computer, and the activity of TRH was regarded as 100%.

For assay [3], the system named is L-Dopa-induced locomotive activity. The assay is described as follows: Potentiation of locomotive activity induced on mice by L-Dopa. The assay is classed as in vivo. The note with it: compound 20 mg/kg i.p., percent related to TRH; for Potentiation of the locomotive effect of L-Dopa, % after 30': Pargyline 40 mg/kg i.p., L-Dopa 100 mg/kg i.p., 30 min; for Potentiation of the locomotive effect of L-Dopa, % after 60': 60 min; for Potentiation of the locomotive effect of L-Dopa, % after 90': 90 min. The procedure: (2) Potentiation of locomotive activity induced on mice by L-Dopa (see The Thyroid Axis, Drugs and Behavior, p. 116, A. J. Prage Jr., Raven Press, New York, 1974)
The tests were performed on groups of 15 male mice each, weighing 18 to 22 g.
First, the animals were treated intraperitoneally with 40 mg/kg of N-methyl-N-propargyl-benzylamine (Pargyline), and then an intraperitoneal dosage of 20 mg/kg of TRH or a TRH-analogue was introduced, followed by an intraperitoneal dosage of 100 mg/kg of L-Dopa. The locomotive activity of the animals was recorded 30, 60 and 90 minutes after this treatment, and the level of potentiation was expressed in percents related to the results observed with TRH.

Where a SMILES comes first, the peptide text is derived from it. [ ]: non-standard residue; d: D form. d(pGlu) = O=C1CC[C@H](C(=O)O)N1

Regarding `CC(C)C[C@H](NC(=O)[C@H]1CCC(=O)N1)C(=O)N1CCC[C@H]1C(N)=O` [D-Glp Leu Pro, D-Pyroglutamyl-L-leucyl-L-prolinamide] ([d(pGlu)]-Leu-Pro-NH2), the “Decrease of sleeping period (% related to the control animals), Ethanol” value with ethanol-induced sleeping was determined as 54%. Further, the “Inhibition of Haloperidol catalepsy ED50” value in assay [1] worked out at 70 mg/kg. Moreover, in the assay with Reserpine hypothermy, the “Reserpine hypothermy reversing effect, rectal temperature obs. time 1 h” value stood at 25.8 °C; the “Reserpine hypothermy reversing effect, rectal temperature obs. time 2 h” value was determined as 25.6 °C; the “Reserpine hypothermy reversing effect, rectal temperature res.” value was 27.4 °C; the “Reserpine hypothermy reversing effect, rectal temperature norm.” value was 36.5 °C. Further, the “Decrease of sleeping period (% related to the control animals), Hexobarb.” value in assay [2] was 97%. In the assay with TSH, this compound gave a TSH effect of 0%. In assay [3], the “Potentiation of the locomotive effect of L-Dopa, % after 30'” value (“Potentiation … % after 30'” for short) was 54%; the “Potentiation of the locomotive effect of L-Dopa, % after 60'” value (“Potentiation … % after 60'” for short) is reported as 58%; the “Potentiation of the locomotive effect of L-Dopa, % after 90'” value (from here on “Potentiation … % after 90'”) came out at 115%.
For `CC(C)C[C@H](NC(=O)C1CNC(=O)N1)C(=O)N1CCC[C@H]1C(N)=O` (stereo partly drawn) [Kic Leu Pro, L-2-Ketoimidazolidine-4-carbonyl-L-leucyl-L-prolinamide], the “Decrease of sleeping period (% related to the control animals), Ethanol” value in the assay with ethanol-induced sleeping was found to be 69%. Also, the “Inhibition of Haloperidol catalepsy ED50” value in assay [1] is given as 80 mg/kg. In addition, in the assay with Reserpine hypothermy, the “Reserpine hypothermy reversing effect, rectal temperature obs. time 1 h” value was determined as 27.7 °C; the “Reserpine hypothermy reversing effect, rectal temperature obs. time 2 h” value is 28.8 °C; the “Reserpine hypothermy reversing effect, rectal temperature res.” value was 24.1 °C; the “Reserpine hypothermy reversing effect, rectal temperature norm.” value was 35.5 °C. Further, the “Decrease of sleeping period (% related to the control animals), Hexobarb.” value in assay [2] is given as 59%. Besides, in the assay with TSH, the TSH effect was determined as 0%. Moreover, in assay [3], the “Potentiation … % after 30'” value was 118%; the “Potentiation … % after 60'” value came to 70%; the “Potentiation … % after 90'” value amounted to 98%.
Regarding `CC(C)C[C@H](NC(=O)C1CCCC(=O)N1)C(=O)N1CCC[C@H]1C(N)=O` (stereo partly drawn) [Kpc Leu Pro, L-6-ketopiperidine-2-carbonyl-L-leucyl-L-prolinamide], the “Decrease of sleeping period (% related to the control animals), Ethanol” value in the assay with ethanol-induced sleeping was 79%. Also, in assay [1], the “Inhibition of Haloperidol catalepsy ED50” value is on record as 23.5 mg/kg. In the assay with Reserpine hypothermy, the “Reserpine hypothermy reversing effect, rectal temperature obs. time 1 h” value was 32.0 °C; the “Reserpine hypothermy reversing effect, rectal temperature obs. time 2 h” value came out at 33.9 °C; the “Reserpine hypothermy reversing effect, rectal temperature res.” value worked out at 24.5 °C; the “Reserpine hypothermy reversing effect, rectal temperature norm.” value was determined as 36.3 °C. Besides, the “Decrease of sleeping period (% related to the control animals), Hexobarb.” value in assay [2] was 37%. This compound registered a TSH effect with TSH of 2.7%. In assay [3], the “Potentiation … % after 30'” value was determined as 319%; the “Potentiation … % after 60'” value came to 80%; the “Potentiation … % after 90'” value turned out to be 127%.
As to `CCC[C@H](NC(=O)C1CCCC(=O)N1)C(=O)N1CCCC[C@H]1C(N)=O` (stereo partly drawn) [Kpc Nva HPro, L-6-Ketopiperidine-2-carbonyl-L-norvalyl-L-homoprolinamide], the “Decrease of sleeping period (% related to the control animals), Ethanol” value with ethanol-induced sleeping amounted to 35%. In addition, in assay [1], the “Inhibition of Haloperidol catalepsy ED50” value was determined as 35.3 mg/kg. Moreover, in the assay with Reserpine hypothermy, the “Reserpine hypothermy reversing effect, rectal temperature obs. time 1 h” value was found to be 26.5 °C; the “Reserpine hypothermy reversing effect, rectal temperature obs. time 2 h” value amounted to 32.2 °C; the “Reserpine hypothermy reversing effect, rectal temperature res.” value is 20.7 °C; the “Reserpine hypothermy reversing effect, rectal temperature norm.” value turned out to be 36.3 °C. The “Decrease of sleeping period (% related to the control animals), Hexobarb.” value in assay [2] was determined as 76%. In addition, in assay [3], the “Potentiation … % after 30'” value turned out to be 63%; the “Potentiation … % after 60'” value turned out to be 30%; the “Potentiation … % after 90'” value was 108%.
Take `CCC[C@H](NC(=O)C1CCCC(=O)N1)C(=O)N1CCC[C@H]1C(N)=O` (stereo partly drawn) [Kpc Nva Pro, L-6-Ketopiperidine-2-carbonyl-L-norvalyl-L-prolinamide]: in the assay with ethanol-induced sleeping, the “Decrease of sleeping period (% related to the control animals), Ethanol” value is 46%. Also, the “Inhibition of Haloperidol catalepsy ED50” value in assay [1] came to 10.6 mg/kg. In the assay on Reserpine hypothermy, the “Reserpine hypothermy reversing effect, rectal temperature obs. time 1 h” value is 33.1 °C; the “Reserpine hypothermy reversing effect, rectal temperature obs. time 2 h” value turned out to be 32.5 °C; the “Reserpine hypothermy reversing effect, rectal temperature res.” value stood at 23.9 °C; the “Reserpine hypothermy reversing effect, rectal temperature norm.” value was determined as 36.3 °C. Also, in assay [2], the “Decrease of sleeping period (% related to the control animals), Hexobarb.” value was determined as 51%. The same compound gave a TSH effect with TSH of 0%. In assay [3], the “Potentiation … % after 30'” value came to 36%; the “Potentiation … % after 60'” value came to 45%; the “Potentiation … % after 90'” value is recorded as 65%.
Regarding `NC(=O)[C@@H]1CCCN1C(=O)[C@H](Cc1c[nH]cn1)NC(=O)[C@@H]1CCC(=O)N1` [TRH, L-pyroglutamyl-L-histidyl-L-prolinamide, reference compound], in the assay on ethanol-induced sleeping, the “Decrease of sleeping period (% related to the control animals), Ethanol” value came out at 35%. In assay [1], the “Inhibition of Haloperidol catalepsy ED50” value was determined as 80 mg/kg. The “Reserpine hypothermy reversing effect, rectal temperature obs. time 1 h” value with Reserpine hypothermy came to 35.5 °C. The “Decrease of sleeping period (% related to the control animals), Hexobarb.” value in assay [2] was found to be 56%. For the same compound, in assay [3], the “Potentiation … % after 60'” value worked out at 100% and the “Potentiation … % after 90'” value was 100%.
